Laboratory results as given in ChEMBL document CHEMBL1275504, “Detection of macrolide resistance in Mycoplasma pneumoniae by real-time PCR and high-resolution melt analysis” (2008).
Converted amounts (≈) assume the structure as drawn.

How the values were obtained:
Type in all cases: functional
[1] = test system: Mycoplasmoides pneumoniae; assay: Antimicrobial activity against Mycoplasma pneumoniae isolate M129 by agar dilution method
[2] = test system: Mycoplasmoides pneumoniae; assay: Antimicrobial activity against Mycoplasma pneumoniae isolate FH by agar dilution method
[3] = test system: Mycoplasmoides pneumoniae; assay: Antimicrobial activity against macrolide-resistant Mycoplasma pneumoniae isolate 6 with A2604G mutation by agar dilution method
[4] = test system: Mycoplasmoides pneumoniae; assay: Antimicrobial activity against macrolide-resistant Mycoplasma pneumoniae isolate 11 with A2604G mutation by agar dilution method
[5] = test system: Mycoplasmoides pneumoniae; assay: Antimicrobial activity against macrolide-resistant Mycoplasma pneumoniae isolate 2p with A2604G mutation by agar dilution method
[6] = test system: Mycoplasmoides pneumoniae; assay: Antimicrobial activity against Mycoplasma pneumoniae isolate 18 by agar dilution method
[7] = test system: Mycoplasmoides pneumoniae; assay: Antimicrobial activity against Mycoplasma pneumoniae isolate 19 by agar dilution method
[8] = test system: Mycoplasmoides pneumoniae; assay: Antimicrobial activity against macrolide-resistant Mycoplasma pneumoniae isolate 685 with A2603G mutation by agar dilution method
[9] = test system: Mycoplasmoides pneumoniae; assay: Antimicrobial activity against macrolide-resistant Mycoplasma pneumoniae isolate 1006 with A2603G mutation by agar dilution method

CC[C@H]1OC(=O)[C@H](C)[C@@H](O[C@H]2C[C@@](C)(OC)[C@@H](O)[C@H](C)O2)[C@H](C)[C@@H](O[C@@H]2O[C@H](C)C[C@H](N(C)C)[C@H]2O)[C@](C)(O)C[C@@H](C)C(=O)[C@H](C)[C@@H](O)[C@]1(C)O [ERYTHROMYCIN]
MIC [1]: 0.063 µg/mL (≈ 0.0858 µM)
MIC [2]: 0.063 µg/mL (≈ 0.0858 µM)
MIC [3]: 128 µg/mL (≈ 174 µM)
MIC [4]: 128 µg/mL (≈ 174 µM)
MIC [5]: 128 µg/mL (≈ 174 µM)
MIC [6]: 0.063 µg/mL (≈ 0.0858 µM)
MIC [7]: 0.063 µg/mL (≈ 0.0858 µM)
MIC [8]: 128 µg/mL (≈ 174 µM)
MIC [9]: 128 µg/mL (≈ 174 µM)

CN(C)c1ccc(O)c2c1C[C@H]1C[C@H]3[C@H](N(C)C)C(O)=C(C(N)=O)C(=O)[C@@]3(O)C(O)=C1C2=O [MINOCYCLINE]
MIC [1]: 0.25 µg/mL (≈ 0.546 µM)
MIC [2]: 0.25 µg/mL (≈ 0.546 µM)
MIC [3]: 0.125 µg/mL (≈ 0.273 µM)
MIC [4]: 0.125 µg/mL (≈ 0.273 µM)
MIC [5]: 0.25 µg/mL (≈ 0.546 µM)
MIC [6]: 0.125 µg/mL (≈ 0.273 µM)
MIC [7]: 0.125 µg/mL (≈ 0.273 µM)
MIC [8]: 0.125 µg/mL (≈ 0.273 µM)
MIC [9]: 0.125 µg/mL (≈ 0.273 µM)

CN(C)[C@@H]1C(O)=C(C(N)=O)C(=O)[C@@]2(O)C(O)=C3C(=O)c4c(O)cccc4[C@@](C)(O)[C@H]3C[C@@H]12 [TETRACYCLINE]
MIC [1]: 0.25 µg/mL (≈ 0.563 µM)
MIC [2]: 0.25 µg/mL (≈ 0.563 µM)
MIC [3]: 0.25 µg/mL (≈ 0.563 µM)
MIC [4]: 0.25 µg/mL (≈ 0.563 µM)
MIC [5]: 0.25 µg/mL (≈ 0.563 µM)
MIC [6]: 0.125 µg/mL (≈ 0.281 µM)
MIC [7]: 0.25 µg/mL (≈ 0.563 µM)
MIC [8]: 0.25 µg/mL (≈ 0.563 µM)
MIC [9]: 0.125 µg/mL (≈ 0.281 µM)
